{
  "source": "patent US20220387375A1",
  "about": "“TRPV1 ACTIVATION-MODULATING COMPLEX MIXTURES OF CANNABINOIDS AND/OR TERPENES” (GBS Global Biopharma, Inc., priority 2018, published 2022)",
  "format_in_all_cases": "cell-based",
  "key": {"TRPV1": {"molecular_target": "T1, TRPV1 (Rattus norvegicus, UniProt O35433)", "T1 construct": "FLAG; expressed in transfected cells", "T1 sequence (O35433 whole entry)": "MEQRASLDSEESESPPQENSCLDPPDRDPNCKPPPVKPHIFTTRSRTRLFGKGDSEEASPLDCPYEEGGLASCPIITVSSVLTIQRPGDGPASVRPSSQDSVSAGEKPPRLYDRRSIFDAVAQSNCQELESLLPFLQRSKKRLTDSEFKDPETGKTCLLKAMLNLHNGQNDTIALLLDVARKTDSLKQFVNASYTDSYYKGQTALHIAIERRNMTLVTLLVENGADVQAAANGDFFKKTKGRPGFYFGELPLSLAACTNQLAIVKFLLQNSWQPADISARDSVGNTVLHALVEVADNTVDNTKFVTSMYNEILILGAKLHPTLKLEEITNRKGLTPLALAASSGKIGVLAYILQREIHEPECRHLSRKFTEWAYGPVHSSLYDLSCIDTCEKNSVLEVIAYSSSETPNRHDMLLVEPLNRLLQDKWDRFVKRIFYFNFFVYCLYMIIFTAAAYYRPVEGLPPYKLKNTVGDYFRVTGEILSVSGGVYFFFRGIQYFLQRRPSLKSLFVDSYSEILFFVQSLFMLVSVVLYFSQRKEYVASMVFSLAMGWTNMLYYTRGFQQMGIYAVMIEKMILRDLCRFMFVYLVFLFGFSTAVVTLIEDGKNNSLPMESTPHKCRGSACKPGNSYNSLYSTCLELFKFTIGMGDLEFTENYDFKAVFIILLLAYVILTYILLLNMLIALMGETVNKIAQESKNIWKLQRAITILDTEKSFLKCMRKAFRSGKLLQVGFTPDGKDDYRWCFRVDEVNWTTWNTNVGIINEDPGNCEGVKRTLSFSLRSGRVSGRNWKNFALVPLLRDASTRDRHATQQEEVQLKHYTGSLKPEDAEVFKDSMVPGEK", "test": "Bulk calcium assay (Fluo-4) in HEK-TRPV1 overexpressing cells", "conditions": "bulk calcium assay; TRPV1; mean (SD)", "description": "(§1) Cells were washed and incubated with 0.2 micromolar Fluo-4 for 30 minutes at 37° C. in a standard modified Ringer's solution of the following composition (in mM): NaCl 145, KCl 2.8, CsCl 10, CaCl2 10, MgCl2 2, glucose 10, Hepes·NaOH 10, pH 7.4, 330 mOsm. Cells were transferred to 96-well plates at 50,000 cells/well and stimulated as indicated. Calcium signals were acquired using a Flexstation 3 (Molecular Devices, Sunnydale, USA). Data was analyzed using SoftMax® Pro 5 (Molecular Devices). Where indicated, nomically calcium-free external conditions were achieved by the preparation of 0 mM CaCl2 Ringer solution containing 1 mM EGTA.\nThe cell culture system described in U.S. patent application Ser. No. 15/986,316 was used to test the TRPV1-mediated calcium response to various terpenes. The HEK293 cell line was stably transfected with the pcDNA6TR (Invitrogen, CA) plasmid (encoding the tetracycline-sensitive TREx repressor protein), and was maintained in DMEM+10% fetal bovine serum (inactivated at 55° C. for 1 h)+2 mM glutamine in humidified 5% CO2 atmosphere at 37° C. Selection pressure on the TRex 293 cells was maintained by continuous culture in 10 μg/ml Blasticidin (Sigma, St Louis, Mo.).\nFor production of TRex HEK293 cells with inducible expression of TRPV1, parental cells were electroporated with the rat TRPV1 cDNA in the pcDNA4TO vector and clonal cell lines were selected by limiting dilution in the presence of 400 μg/ml zeocin (Invitrogen, CA). TRPV1 expression was induced using 1 μg/ml tetracycline for 16 h at 37° C. Stable lines were screened for inducible protein expression using anti-FLAG Western blot, and inducible expression was confirmed.\nCalcium responses mediated by TRPV1 were tested by calcium assay in the cell culture system. Cells were washed and incubated with 0.2 μM fluo-4 acetoxymethyl ester (“Fluo-4”) for 30 minutes at 37° C. in a standard modified Ringer's solution of the following composition (in mM): NaCl 145, KCl2.8, CsCl10, CaCl2 10, MgCl2 2, glucose 10, Hepes·NaOH 10, pH 7.4, 330 mOsm. Cells were transferred to 96-well plates at 50,000 cells/well and stimulated as indicated. The terpenes used were alpha-bisabool, alpha-pinene, myrcene, camphene, linalool, ocimene, humulene, beta-caryophyllene, beta-pinene, limonene, and nerolidol. The terpenes were diluted in DMSO and added to the wells to a final concentration of 10 μM. Vehicle (DMSO) alone was run as a negative control and subtracted from the terpene traces. Calcium signals were acquired using a Flexstation 3 (Molecular Devices, Sunnydale, USA). Data was analyzed using SoftMax® Pro 5 (Molecular Devices).\n(§2) Calcium responses mediated by TRPA1, TRPM8, TRPV2, and TRPV1 were tested by calcium assay in the cell culture system. Cells were washed and incubated with 0.2 μM fluo-4 acetoxymethyl ester (“Fluo-4”) for 30 minutes at 37° C. in a standard modified Ringer's solution of the following composition (in mM): NaCl 145, KCl 2.8, CsCl 10, CaCl2 10, MgCl2 2, glucose 10, Hepes·NaOH 10, pH 7.4, 330 mOsm. Cells were transferred to 96-well plates at 50,000 cells/well and stimulated with 10 μM myrcene diluted in DMSO. Vehicle (DMSO) was used as a negative control. Vehicle traces were subtracted from the myrcene traces for each cell line.\nAs shown in FIGS. 16A-H, a variety of cannabinoids were capable of initiating Ca^2+ fluxes in HEK-TRPV1 overexpressing cells, except for cannabigerol and cannabinol. Comparative responses to a single dose (10 μM concentration) of a variety of cannabinoids were made in the presence of 1 mM external Ca^2+, which are population-based, or bulk Ca^2+, measurements with each trace representing averaged triplicates of 100,000 cells per sample. […] For each of the cannabinoid compounds, dose responses at the population level were performed. […] The lower limit of detectable calcium responses in this system varied from 10-100 nM (CBDV, CBGA) to 1-10 μM."}, "TRPV2": {"molecular_target": "T2, TRPV2 (Homo sapiens, UniProt Q9Y5S1)", "T2 construct": "host or cells: HEK TRex293", "T2 sequence (Q9Y5S1 1-764)": "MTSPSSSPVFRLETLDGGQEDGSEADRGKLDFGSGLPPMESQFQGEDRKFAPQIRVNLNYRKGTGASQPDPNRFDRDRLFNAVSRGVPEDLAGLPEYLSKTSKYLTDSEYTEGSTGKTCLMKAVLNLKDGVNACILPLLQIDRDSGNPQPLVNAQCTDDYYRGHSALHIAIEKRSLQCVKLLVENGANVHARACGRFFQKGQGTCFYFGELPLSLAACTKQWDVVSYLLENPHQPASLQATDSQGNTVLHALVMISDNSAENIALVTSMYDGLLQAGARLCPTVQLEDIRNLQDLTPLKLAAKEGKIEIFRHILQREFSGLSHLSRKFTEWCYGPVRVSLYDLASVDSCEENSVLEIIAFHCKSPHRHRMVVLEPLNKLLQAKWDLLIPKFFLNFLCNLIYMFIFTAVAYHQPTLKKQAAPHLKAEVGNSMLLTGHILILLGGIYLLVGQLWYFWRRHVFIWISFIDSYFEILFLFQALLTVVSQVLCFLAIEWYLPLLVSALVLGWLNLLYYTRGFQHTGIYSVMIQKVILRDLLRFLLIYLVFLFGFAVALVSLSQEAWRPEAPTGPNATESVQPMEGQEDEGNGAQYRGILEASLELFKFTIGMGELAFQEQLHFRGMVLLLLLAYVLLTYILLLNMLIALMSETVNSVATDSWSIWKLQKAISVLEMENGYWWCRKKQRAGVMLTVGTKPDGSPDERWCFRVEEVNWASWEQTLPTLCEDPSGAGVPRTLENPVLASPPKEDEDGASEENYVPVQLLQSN", "test": "Bulk calcium assay (Fluo-4) in HEK cells overexpressing TRPV2", "description": "(§3) HEK TRexTRPV1 were cultured in DMEM, 10% Fetal Bovine Serum, 2 mM Lglutamine, 10 μg/ml Blasticidin (Calbiochem, San Diego Calif.), 400 μg/ml Zeocin (InvivoGen, San Diego Calif.), where indicated transgene expression was induced using 1 μg/ml Tetracycline for 16-24 hrs. Unless otherwise indicated, basal expression of TRPV1 without induction was sufficient for these studies, and comparisons were made to untransfected HEK where needed. HEKTRex293 over-expressing human TRPV2, human TRPA1 and human TRPM8 were obtained from SB Drug Discovery (Glasgow, Scotland) and cultured as described above. The cannabinoids and terpenes were assayed in HEK cells that have been transfected with the TRPV1 ion channel protein. These cells are called HEK293-V1 cells.\nas §1, §2\n(§4) The potential for different cannabinoids to target specific TRP channels, or to co-target more than one channel type, are of potential therapeutic options for the treatment and management of pain. Comparison of the impacts of a variety of cannabinoid on overexpression systems for TRPV2, TRPM8, and TRPA1 were performed in a side-by-side fashion, under bulk calcium assays where the measurements with each trace representing averaged triplicates of 100,000 cells per sample. As shown in FIGS. 41-43 and summarized in Table 3, there are clear differences in responsiveness between cannabinoids at a single channel type than between channel types to a given cannabinoid."}, "TRPM8": {"molecular_target": "T3, TRPM8 (Homo sapiens, UniProt Q7Z2W7)", "T3 construct": "host or cells: HEK TRex293", "T3 sequence (Q7Z2W7 whole entry)": "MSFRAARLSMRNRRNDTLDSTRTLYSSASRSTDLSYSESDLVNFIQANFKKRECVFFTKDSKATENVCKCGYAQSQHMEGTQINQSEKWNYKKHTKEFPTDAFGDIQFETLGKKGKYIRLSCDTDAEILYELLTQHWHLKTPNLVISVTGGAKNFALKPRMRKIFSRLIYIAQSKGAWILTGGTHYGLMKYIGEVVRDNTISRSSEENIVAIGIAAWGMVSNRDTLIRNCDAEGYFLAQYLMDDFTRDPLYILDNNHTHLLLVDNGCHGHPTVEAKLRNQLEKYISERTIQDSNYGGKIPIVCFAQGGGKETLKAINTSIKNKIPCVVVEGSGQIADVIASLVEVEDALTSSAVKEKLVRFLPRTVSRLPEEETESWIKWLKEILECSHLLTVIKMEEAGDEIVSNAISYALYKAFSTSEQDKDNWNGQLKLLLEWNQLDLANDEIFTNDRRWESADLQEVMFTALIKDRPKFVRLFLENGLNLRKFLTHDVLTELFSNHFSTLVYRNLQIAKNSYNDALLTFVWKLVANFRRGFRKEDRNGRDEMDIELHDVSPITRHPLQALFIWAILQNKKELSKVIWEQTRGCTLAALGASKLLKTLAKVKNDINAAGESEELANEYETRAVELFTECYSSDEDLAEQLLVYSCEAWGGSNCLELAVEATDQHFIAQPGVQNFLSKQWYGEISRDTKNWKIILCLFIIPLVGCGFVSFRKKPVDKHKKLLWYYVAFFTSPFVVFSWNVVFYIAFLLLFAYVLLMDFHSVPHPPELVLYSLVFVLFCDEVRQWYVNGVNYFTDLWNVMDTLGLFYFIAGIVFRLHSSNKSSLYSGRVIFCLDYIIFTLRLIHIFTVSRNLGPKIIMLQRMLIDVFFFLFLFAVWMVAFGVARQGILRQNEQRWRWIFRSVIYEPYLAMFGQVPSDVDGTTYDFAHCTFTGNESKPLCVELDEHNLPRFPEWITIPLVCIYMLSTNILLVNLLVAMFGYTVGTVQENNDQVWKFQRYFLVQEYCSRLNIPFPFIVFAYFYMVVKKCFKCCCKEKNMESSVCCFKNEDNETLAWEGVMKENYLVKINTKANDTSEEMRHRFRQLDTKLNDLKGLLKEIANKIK", "test": "Bulk calcium assay (Fluo-4) in HEK cells overexpressing TRPM8", "description": "as §3, §1, §2, §4"}, "TRPA1": {"molecular_target": "T4, TRPA1 (Homo sapiens, UniProt O75762)", "T4 construct": "host or cells: HEK TRex293", "T4 sequence (O75762 whole entry)": "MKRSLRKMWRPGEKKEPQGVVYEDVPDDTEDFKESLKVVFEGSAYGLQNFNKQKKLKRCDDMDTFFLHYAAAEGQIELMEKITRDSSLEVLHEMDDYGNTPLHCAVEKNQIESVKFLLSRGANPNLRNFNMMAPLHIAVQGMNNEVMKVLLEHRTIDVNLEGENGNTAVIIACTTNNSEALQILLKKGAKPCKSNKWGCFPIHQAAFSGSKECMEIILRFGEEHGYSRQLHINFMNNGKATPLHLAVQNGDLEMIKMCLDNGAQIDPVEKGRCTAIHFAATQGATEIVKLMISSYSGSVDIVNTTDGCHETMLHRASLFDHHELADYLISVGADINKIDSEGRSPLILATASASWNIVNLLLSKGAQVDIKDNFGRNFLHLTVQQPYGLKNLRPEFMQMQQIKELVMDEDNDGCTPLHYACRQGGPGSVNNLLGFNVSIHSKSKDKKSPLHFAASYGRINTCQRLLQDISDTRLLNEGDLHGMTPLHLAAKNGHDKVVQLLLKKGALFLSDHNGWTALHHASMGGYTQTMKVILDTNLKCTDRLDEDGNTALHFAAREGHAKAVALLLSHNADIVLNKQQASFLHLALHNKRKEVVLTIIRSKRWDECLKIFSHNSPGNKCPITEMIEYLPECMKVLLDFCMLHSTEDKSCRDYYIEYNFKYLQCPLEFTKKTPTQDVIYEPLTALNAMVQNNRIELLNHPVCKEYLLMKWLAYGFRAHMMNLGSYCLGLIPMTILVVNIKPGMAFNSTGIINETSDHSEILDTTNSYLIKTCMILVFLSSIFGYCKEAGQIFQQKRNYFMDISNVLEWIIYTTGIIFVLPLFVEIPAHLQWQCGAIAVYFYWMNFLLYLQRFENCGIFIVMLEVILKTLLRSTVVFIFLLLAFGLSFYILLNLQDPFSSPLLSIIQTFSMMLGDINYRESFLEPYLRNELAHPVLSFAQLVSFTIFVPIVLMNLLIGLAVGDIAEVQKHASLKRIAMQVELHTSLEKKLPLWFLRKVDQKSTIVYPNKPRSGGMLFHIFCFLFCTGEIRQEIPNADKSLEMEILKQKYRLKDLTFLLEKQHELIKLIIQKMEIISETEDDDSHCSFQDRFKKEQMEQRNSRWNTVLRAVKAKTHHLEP", "test": "Bulk calcium assay (Fluo-4) in HEK cells overexpressing TRPA1", "description": "as §3, §1, §2, §4"}, "WT HEK293": {"test_system": "WT HEK293", "test": "Bulk calcium assay in untransfected WT HEK293", "conditions": "10 μM, 1 mM external Ca2+"}},
  "data": [
    {"smiles": "CCCCCc1cc(O)c2c(c1)OC(C)(CCC=C(C)C)C=C2", "note": "(stereo not shown) [CBC, Cannabichromene]", "values": [
      {"measurement": "mean maximal Ca^2+ signal RFU achieved 0-180 s (SD), TRPV1", "setting": "TRPV1", "result": "3.23 (0.12) RFU"},
      {"measurement": "mean maximal Ca^2+ signal RFU achieved 0-180 s (SD), TRPV1", "setting": "TRPV2", "result": "21.66 (1.89) RFU"},
      {"measurement": "mean maximal Ca^2+ signal RFU achieved 0-180 s (SD), TRM8", "setting": "TRPM8", "result": "0.97 (0.03) RFU"},
      {"measurement": "mean maximal Ca^2+ signal RFU achieved 0-180 s (SD), TRPA1", "setting": "TRPA1", "result": "15.13 (3.35) RFU"}
    ]},
    {"smiles": "C=C(C)[C@@H]1CCC(C)=C[C@H]1c1c(O)cc(CCCCC)c(C(=O)O)c1O", "note": "[CBDA, Cannabidiolic Acid]", "values": [
      {"measurement": "mean maximal Ca^2+ signal RFU achieved 0-180 s (SD), TRPV1", "setting": "TRPV1", "result": "4.62 (0.66) RFU"},
      {"measurement": "mean maximal Ca^2+ signal RFU achieved 0-180 s (SD), TRPV1", "setting": "TRPV2", "result": "3.69 (1.2) RFU"},
      {"measurement": "mean maximal Ca^2+ signal RFU achieved 0-180 s (SD), TRM8", "setting": "TRPM8", "result": "1.92 (0.04) RFU"},
      {"measurement": "mean maximal Ca^2+ signal RFU achieved 0-180 s (SD), TRPA1", "setting": "TRPA1", "result": "10.09 (3.08) RFU"}
    ]},
    {"smiles": "CCCCCc1cc(O)c(C/C=C(\\C)CCC=C(C)C)c(O)c1C(=O)O", "note": "[CBGA, Cannabigerolic Acid]", "values": [
      {"measurement": "mean maximal Ca^2+ signal RFU achieved 0-180 s (SD), TRPV1", "setting": "TRPV1", "result": "13.77 (0.31) RFU"},
      {"measurement": "mean maximal Ca^2+ signal RFU achieved 0-180 s (SD), TRPV1", "setting": "TRPV2", "result": "0.78 (0.02) RFU"},
      {"measurement": "mean maximal Ca^2+ signal RFU achieved 0-180 s (SD), TRM8", "setting": "TRPM8", "result": "0.3 (0.01) RFU"},
      {"measurement": "mean maximal Ca^2+ signal RFU achieved 0-180 s (SD), TRPA1", "setting": "TRPA1", "result": "3.65 (1.11) RFU"},
      {"measurement": "calcium response of WT HEK293", "setting": "WT HEK293", "result": "responding slightly"}
    ]}
  ]
}
